Reference: US20240109917A1 (ACTELION PHARMACEUTICALS LTD, priority 2020, published 2024)
pIC50: −log10 of the molar value.

What was measured:
[1] = target: His6-TEV-PDGFRβ (557-1016) (Homo sapiens (Human), UniProt P09619); experiment: PDGFRβ HTRF Assay; type: biochemical; conditions: read-out: PDGFR HTRF IC50
How it was run: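 HTRF KinEASE-TK readout (665/620 nm ratio) of TK-biotin substrate phosphorylation by His-tagged PDGFRβ kinase domain. Enzyme and inhibitor preincubated 30 min, then ATP/substrate added for 3 h at room temperature before 60 min EDTA quench/detection.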

PDGFRβ = PDGFRβ (Rattus norvegicus (Rat), UniProt Q05030); experiment: PDGFRβ Cellular Assay (PDGFRb P-Y751 HTRF in A10 cells stimulated with PDGF-BB); type: cell-based; conditions: read-out: PDGFR Cellular IC50
How it was run: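 Phospho-Y751 PDGFRβ was measured by HTRF in lysates of A10 rat cells. Cells received compound for 3 hours before PDGF-BB stimulation (100 ng/mL working stock).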

Chain of PDGFRβ (Q05030 32-1097): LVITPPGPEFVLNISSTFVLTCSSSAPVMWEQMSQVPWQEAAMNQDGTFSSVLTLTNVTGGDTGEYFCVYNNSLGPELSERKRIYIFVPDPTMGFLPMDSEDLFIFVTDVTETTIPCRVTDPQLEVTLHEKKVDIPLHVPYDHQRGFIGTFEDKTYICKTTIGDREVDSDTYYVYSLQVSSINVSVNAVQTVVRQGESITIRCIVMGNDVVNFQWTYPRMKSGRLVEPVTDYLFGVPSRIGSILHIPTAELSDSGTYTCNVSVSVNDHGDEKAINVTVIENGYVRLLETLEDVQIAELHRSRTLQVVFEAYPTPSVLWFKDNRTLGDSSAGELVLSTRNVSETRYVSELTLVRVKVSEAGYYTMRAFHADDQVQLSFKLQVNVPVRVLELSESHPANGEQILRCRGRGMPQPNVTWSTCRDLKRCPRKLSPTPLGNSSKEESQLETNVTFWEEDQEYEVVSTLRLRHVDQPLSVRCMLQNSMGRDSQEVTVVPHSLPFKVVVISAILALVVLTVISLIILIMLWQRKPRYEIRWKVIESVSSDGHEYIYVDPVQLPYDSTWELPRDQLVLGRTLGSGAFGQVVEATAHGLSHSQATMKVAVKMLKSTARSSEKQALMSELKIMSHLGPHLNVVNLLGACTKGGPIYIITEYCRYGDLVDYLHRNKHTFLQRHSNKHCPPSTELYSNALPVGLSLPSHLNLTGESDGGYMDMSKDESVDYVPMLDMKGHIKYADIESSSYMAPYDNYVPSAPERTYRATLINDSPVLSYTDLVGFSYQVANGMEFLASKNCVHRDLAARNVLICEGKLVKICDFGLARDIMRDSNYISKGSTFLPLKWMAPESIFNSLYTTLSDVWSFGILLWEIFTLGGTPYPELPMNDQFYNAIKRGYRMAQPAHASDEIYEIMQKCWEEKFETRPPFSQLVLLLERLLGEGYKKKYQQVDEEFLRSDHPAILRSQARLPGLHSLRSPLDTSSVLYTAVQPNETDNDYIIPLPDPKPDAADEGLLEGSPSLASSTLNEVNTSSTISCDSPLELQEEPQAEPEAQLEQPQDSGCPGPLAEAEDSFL
Chain of His6-TEV-PDGFRβ (557-1016) (P09619 557-1016): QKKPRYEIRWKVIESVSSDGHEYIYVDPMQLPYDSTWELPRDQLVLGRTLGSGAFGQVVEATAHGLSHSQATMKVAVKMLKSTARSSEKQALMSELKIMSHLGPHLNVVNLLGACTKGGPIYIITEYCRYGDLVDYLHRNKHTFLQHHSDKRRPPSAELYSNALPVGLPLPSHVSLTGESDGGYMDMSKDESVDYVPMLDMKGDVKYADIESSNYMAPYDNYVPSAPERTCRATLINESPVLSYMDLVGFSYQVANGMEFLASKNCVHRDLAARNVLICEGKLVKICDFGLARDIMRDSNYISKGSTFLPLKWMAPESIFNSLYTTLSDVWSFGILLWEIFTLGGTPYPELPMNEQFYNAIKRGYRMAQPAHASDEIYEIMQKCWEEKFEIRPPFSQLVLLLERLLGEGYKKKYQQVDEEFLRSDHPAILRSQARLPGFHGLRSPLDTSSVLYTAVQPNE

Compound	pIC50 [1]	pIC50 (PDGFRβ)
Cc1ncc(NC(=O)CN2CC(C)(C)C2)cc1NC(=O)c1cnn2cc(-c3ccnc(N4CCOCC4)c3)sc12 [Example 284, N-(5-(2-(3,3-dimethylazetidin-1-yl)acetamido)-2-methylpyridin-3-yl)-2-(2-morpholinopyridin-4-yl)pyrazolo[5,1-b]thiazole-7-carboxamide]	9.70	8.55
Cc1ncc(NC(=O)CN2CCCC(O)C2)cc1NC(=O)c1cnn2cc(-c3cnn(C)c3)sc12 (centres unmarked) [Example 303, N-(5-(2-(3-hydroxypiperidin-1-yl)acetamido)-2-methylpyridin-3-yl)-2-(1-methyl-1H-pyrazol-4-yl)pyrazolo[5,1-b]thiazole-7-carboxamide]	9.40	6.92
COc1ncccc1-c1cn2ncc(C(=O)Nc3cc(NC(=O)OCC(C)N4CCCC4)cnc3C)c2s1 (centres unmarked) [Example 255, 2-(pyrrolidin-1-yl)propyl (5-(2-(2-methoxypyridin-3-yl)pyrazolo[5,1-b]thiazole-7-carboxamido)-6-methylpyridin-3-yl)carbamate]	9.70	8.03
COc1ncccc1-c1cn2ncc(C(=O)Nc3cc(C(=O)NCCN4CCC[C@@H]4C)cnc3C)c2s1 [Example 301, (S)-2-(2-methoxypyridin-3-yl)-N-(2-methyl-5-((2-(2-methylpyrrolidin-1-yl)ethyl)carbamoyl)pyridin-3-yl)pyrazolo[5,1-b]thiazole-7-carboxamide]	9.70	8.37
Cc1ncc(NC(=O)CN2CCC3(CCCO3)C2)cc1NC(=O)c1cnn2cc(-c3cnn(C)c3)sc12 (centres unmarked) [Example 21, N-(5-(2-(1-oxa-7-azaspiro[4.4]nonan-7-yl)acetamido)-2-methylpyridin-3-yl)-2-(1-methyl-1H-pyrazol-4-yl)pyrazolo[5,1-b]thiazole-7-carboxamide]	9.15	7.96
COCCn1cc(-c2cn3ncc(C(=O)Nc4cc(NC(=O)CN5CC(C)(C)C5)cnc4C)c3s2)cn1 [Example 261, N-(5-(2-(3,3-dimethylazetidin-1-yl)acetamido)-2-methylpyridin-3-yl)-2-(1-(2-methoxyethyl)-1H-pyrazol-4-yl)pyrazolo[5,1-b]thiazole-7-carboxamide]	9.40	8.38
Cc1ncc(NC(=O)CN2CC(C)(C)C2)cc1NC(=O)c1cnn2cc(-c3cnn(CC#N)c3)sc12 [Example 266, 2-(1-(cyanomethyl)-1H-pyrazol-4-yl)-N-(5-(2-(3,3-dimethylazetidin-1-yl)acetamido)-2-methylpyridin-3-yl)pyrazolo[5,1-b]thiazole-7-carboxamide]	9.15	7.44
Cc1ncc(NC(=O)CN2CC(C)(C)C2)cc1NC(=O)c1cnn2cc(-c3cnn(CCO)c3)sc12 [Example 290, N-(5-(2-(3,3-dimethylazetidin-1-yl)acetamido)-2-methylpyridin-3-yl)-2-(1-(2-hydroxyethyl)-1H-pyrazol-4-yl)pyrazolo[5,1-b]thiazole-7-carboxamide]	9.40	7.71
Cc1ncc(NC(=O)CN(C)C2CCOCC2)cc1NC(=O)c1cnn2cc(-c3cnn(C4CC4)c3)sc12 [Example 294, 2-(1-cyclopropyl-1H-pyrazol-4-yl)-N-(2-methyl-5-(2-(methyl(tetrahydro-2H-pyran-4-yl)amino)acetamido)pyridin-3-yl)pyrazolo[5,1-b]thiazole-7-carboxamide]	9.52	7.90
Cc1ncc(NC(=O)CN2CC(C)(C)C2)cc1NC(=O)c1cnn2cc(-c3ccc(CO)s3)sc12 [Example 278, N-(5-(2-(3,3-dimethylazetidin-1-yl)acetamido)-2-methylpyridin-3-yl)-2-(5-(hydroxymethyl)thiophen-2-yl)pyrazolo[5,1-b]thiazole-7-carboxamide]	9.70	8.82
Cc1ncc(NC(=O)CN(C)C2CCOCC2)cc1NC(=O)c1cnn2cc(-c3cnn(C4CCC4)c3)sc12 [Example 296, 2-(1-cyclobutyl-1H-pyrazol-4-yl)-N-(2-methyl-5-(2-(methyl(tetrahydro-2H-pyran-4-yl)amino)acetamido)pyridin-3-yl)pyrazolo[5,1-b]thiazole-7-carboxamide]	9.52	8.12
Cc1ncc(NC(=O)CN2CC(C)(C)C2)cc1NC(=O)c1cnn2cc(-c3cnn(CC(N)=O)c3)sc12 [Example 267, 2-(1-(2-amino-2-oxoethyl)-1H-pyrazol-4-yl)-N-(5-(2-(3,3-dimethylazetidin-1-yl)acetamido)-2-methylpyridin-3-yl)pyrazolo[5,1-b]thiazole-7-carboxamide]	9.05	6.15
Cc1ncc(NC(=O)[C@@H]2C[C@H](C)CN2C)cc1NC(=O)c1cnn2cc(-c3cccnc3O)sc12 [Example 316, N-(5-((2S,4S)-1,4-dimethylpyrrolidine-2-carboxamido)-2-methylpyridin-3-yl)-2-(2-hydroxypyridin-3-yl)pyrazolo[5,1-b]thiazole-7-carboxamide]	8.72	7.23
Cc1ncc(NC(=O)CN2CCCC2)cc1NC(=O)c1cnn2cc(-c3cccnc3O)sc12 [Example 312, 2-(2-hydroxypyridin-3-yl)-N-(2-methyl-5-(2-(pyrrolidin-1-yl)acetamido)pyridin-3-yl)pyrazolo[5,1-b]thiazole-7-carboxamide]	8.74	6.02
Cc1ncc(NC(=O)CN2CC(C)(C)C2)cc1NC(=O)c1cnn2cc(-c3cnn(C4CS(=O)(=O)C4)c3)sc12 [Example 262, N-(5-(2-(3,3-dimethylazetidin-1-yl)acetamido)-2-methylpyridin-3-yl)-2-(1-(1,1-dioxidothietan-3-yl)-1H-pyrazol-4-yl)pyrazolo[5,1-b]thiazole-7-carboxamide]	9.30	7.43
Cc1ncc(NC(=O)CN2CC(C)(C)C2)cc1NC(=O)c1cnn2cc(-c3cccc4c3cnn4C)sc12 [Example 286, N-(5-(2-(3,3-dimethylazetidin-1-yl)acetamido)-2-methylpyridin-3-yl)-2-(1-methyl-1H-indazol-4-yl)pyrazolo[5,1-b]thiazole-7-carboxamide]	10.00	8.85
Cc1ncc(NC(=O)CN2CC(C)(C)C2)cc1NC(=O)c1cnn2cc(-c3cnn(CS(C)(=O)=O)c3)sc12 [Example 265, N-(5-(2-(3,3-dimethylazetidin-1-yl)acetamido)-2-methylpyridin-3-yl)-2-(1-((methylsulfonyl)methyl)-1H-pyrazol-4-yl)pyrazolo[5,1-b]thiazole-7-carboxamide]	9.30	6.94
Cc1ncc(NC(=O)[C@@H]2C[C@@H](C)CN2C)cc1NC(=O)c1cnn2cc(-c3cnn(C)c3)sc12 [Example 304, N-(5-((2S,4R)-1,4-dimethylpyrrolidine-2-carboxamido)-2-methylpyridin-3-yl)-2-(1-methyl-1H-pyrazol-4-yl)pyrazolo[5,1-b]thiazole-7-carboxamide]	9.22	8.03
COc1ncccc1-c1cn2ncc(C(=O)Nc3cc(NC(=O)CN4CCOCC45CCC5)cnc3C)c2s1 [Example 310, N-(5-(2-(8-oxa-5-azaspiro[3.5]nonan-5-yl)acetamido)-2-methylpyridin-3-yl)-2-(2-methoxypyridin-3-yl)pyrazolo[5,1-b]thiazole-7-carboxamide]	9.52	8.48
Cc1ncc(NC(=O)CN2CC(C)(C)C2)cc1NC(=O)c1cnn2cc(-c3cc[nH]c3)sc12 [Example 285, N-(5-(2-(3,3-dimethylazetidin-1-yl)acetamido)-2-methylpyridin-3-yl)-2-(1H-pyrrol-3-yl)pyrazolo[5,1-b]thiazole-7-carboxamide]	10.00	8.92
Cc1ncc(NC(=O)CN2CCCC23COC3)cc1NC(=O)c1cnn2cc(-c3cnn(C)c3)sc12 [Example 20, N-(5-(2-(2-oxa-5-azaspiro[3.4]octan-5-yl)acetamido)-2-methyl-pyridin-3-yl)-2-(1-methyl-1H-pyrazol-4-yl)pyrazolo[5,1-b]thiazole-7-carboxamide]	9.15	7.44
Cc1ncc(NC(=O)CN2CC(C)(C)C2)cc1NC(=O)c1cnn2cc(-c3cnc4[nH]ncc4c3)sc12 [Example 288, N-(5-(2-(3,3-dimethylazetidin-1-yl)acetamido)-2-methylpyridin-3-yl)-2-(1H-pyrazolo[3,4-b]pyridin-5-yl)pyrazolo[5,1-b]thiazole-7-carboxamide]	9.40	7.87
COCCn1cc(-c2cn3ncc(C(=O)Nc4cc(NC(=O)CN5CCC[C@H]5C)cnc4C)c3s2)cn1 [Example 330, (R)-2-(1-(2-methoxyethyl)-1H-pyrazol-4-yl)-N-(2-methyl-5-(2-(2-methylpyrrolidin-1-yl)acetamido)pyridin-3-yl)pyrazolo[5,1-b]thiazole-7-carboxamide]	9.22	8.17
CC(=O)Nc1cncc(-c2cn3ncc(C(=O)Nc4cc(NC(=O)CN5CC(C)(C)C5)cnc4C)c3s2)c1 [Example 277, 2-(5-acetamidopyridin-3-yl)-N-(5-(2-(3,3-dimethylazetidin-1-yl)acetamido)-2-methylpyridin-3-yl)pyrazolo[5,1-b]thiazole-7-carboxamide]	9.40	6.85
CNC(=O)c1cc(-c2cn3ncc(C(=O)Nc4cc(NC(=O)CN5CC(C)(C)C5)cnc4C)c3s2)ccn1 [Example 274, N-(5-(2-(3,3-dimethylazetidin-1-yl)acetamido)-2-methylpyridin-3-yl)-2-(2-(methylcarbamoyl)pyridin-4-yl)pyrazolo[5,1-b]thiazole-7-carboxamide]	9.00	7.29
